# Laboratory results as given in patent US4897397A, “Aryl-alkynoic, alkenoic or alkanoic compounds and compositions useful as antiallergy and anti-inflammatory agents” (Schering Corporation, priority 1988, dated 1990).
# Target: T1, 5-Lipoxygenase (Mus musculus, UniProt P48999)
# T1 construct: Use the interleukin-3-dependent murine mast cell clone, MC-9; endogenous in cells; host or cells: MC-9 murine mast cell clone (interleukin-3-dependent)
# T1 sequence (P48999 1-674): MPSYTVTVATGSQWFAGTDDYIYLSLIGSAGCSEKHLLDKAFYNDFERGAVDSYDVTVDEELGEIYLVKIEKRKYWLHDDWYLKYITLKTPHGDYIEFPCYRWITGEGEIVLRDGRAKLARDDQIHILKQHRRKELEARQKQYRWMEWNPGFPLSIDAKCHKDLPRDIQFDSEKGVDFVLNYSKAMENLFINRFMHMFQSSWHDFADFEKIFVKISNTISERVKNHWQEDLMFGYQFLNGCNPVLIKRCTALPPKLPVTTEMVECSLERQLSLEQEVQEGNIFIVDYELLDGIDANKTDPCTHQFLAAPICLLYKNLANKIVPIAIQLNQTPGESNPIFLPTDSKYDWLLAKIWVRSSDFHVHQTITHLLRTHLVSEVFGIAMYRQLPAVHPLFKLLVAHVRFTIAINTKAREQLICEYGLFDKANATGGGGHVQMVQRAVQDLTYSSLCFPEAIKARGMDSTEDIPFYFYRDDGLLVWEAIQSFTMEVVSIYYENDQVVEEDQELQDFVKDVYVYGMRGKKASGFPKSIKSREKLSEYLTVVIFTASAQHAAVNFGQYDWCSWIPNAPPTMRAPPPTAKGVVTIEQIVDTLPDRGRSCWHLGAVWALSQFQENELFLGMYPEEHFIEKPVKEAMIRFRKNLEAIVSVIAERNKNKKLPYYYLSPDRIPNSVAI
# Experiment: 5-Lipoxygenase Assay (inhibition of LTC4 and 5-HETE production in MC-9 mast cells)
# Format: cell-based
# Conditions: MC-9 murine mast cells, [14C]-arachidonic acid, A23187
# Description: Use the interleukin-3-dependent murine mast cell clone, MC-9, to test the effects of representative compounds of the invention on lipoxygenase activity. Grow the MC-9 cell line in suspension culture (0.4 to 1.2×10^6 cells/ml) in RPMI 1640 medium (Gibco) with 10% fetal bovine serum (Hyclone) and 2-5% concanavalin-A conditioned supernatant (Musch et. al., (1985) Prostagandins 29, 405-4307). Harvest the cells, wash them twice by centrifugation, and resuspend them in a Ca^++ -free HEPES buffer (25 mM HEPES, 125 mM NaCl, 2.5 mMKCl, 0.7 mM MgCl2 0.5 mM EDTA and 10 mM glucose at pH 7.4).
# Preincubate MC-9 cells (0.39 ml at 7.5×10^6 cells/ml) without or with test compound dissolved in dimethylsulfoxide (DMSO) vehicle (to final volume 1 ml) for 4 minutes then incubate for 5 minutes with [^14 C]-arachidonic acid (Amersham, 59 Ci/mole) at a […] final concentration, and A23187 (Calbiochem) at a […] final concentration in […] of water:ethanol (9:1). Stop the reaction by addition of methanol (0.4 ml), and remove cellular debris by centrifugation. Run aliquots ([…]) of the incubations on a Waters two-pump HPLC system fitted with a Waters radial compression column (C18, 10 micron, 8×100 mm, micro-Bondapak) and C18 "Guard Pak". Initially elute the column at 3 ml/min with water:methanol:acetic acid (67:33:0.08) containing 1 mM EDTA adjusted to pH 6.0 with ammonium hydroxide (Pump A). At 4 minutes, establish a linear gradient to reach 100% methanol (Pump B) at 9 minutes. Between 13 and 14 minutes, exchange for the initial eluting solvent and by 19 minutes the column will be reequilibrated for the next sample. Analyze the effluent by a continuous flow radioactivity monitor (model ROMONA-D) interfaced with a Hewlett Packard Lab Automation System for quantitation of radioactive products.
# These products are predominantly leukotriene C4 (LTC4), which elutes at 6 minutes, and 5-hydroxeicosatetraenoic acid (5-HETE), which elutes at 11 minutes (Musch et. al., supra). […] Doses in table 1 are 50 μM unless otherwise noted.
row,Compound,inhibition at 50 µM
1,O=C(O)CCC/C=C/c1cccc(OCc2ccccc2)c1,84%
2,O=C(O)CCC/C=C/c1cccc(Oc2ccccc2)c1,74%
3,O=C(O)CCC/C=C/c1cccc(OCc2cccnc2)c1,7%
4,O=C(O)CCC/C=C/c1cccc(OCC2CCCCO2)c1 (stereo not drawn),23%
5,CCOC(=O)CCC/C=C/c1cccc(OCc2c[nH]cn2)c1,89%
6,O=C(O)CCC/C=C/c1cccc(SCc2ccccc2)c1,0%
7,O=C(O)CCCC#Cc1cccc(OCc2ccccc2)c1,80%
8,O=C(O)CCC/C=C\c1cccc(OCc2ccccc2)c1,89%
9,O=C(O)CCCCCc1cccc(OCc2ccccc2)c1,80%
